# Source: patent publication US20250059171A1 (Hoffmann-La Roche Inc., priority 2021, published 2025)
# Key:
# SARS-CoV-2 3CLpro = SARS-CoV-2 3CLpro (Severe acute respiratory syndrome coronavirus 2, UniProt P0DTD1); experiment: biochemical
# HCoV-229E 3CLpro = HCoV-229E 3CLpro (Human coronavirus 229E, UniProt P0C6X1); experiment: HCoV-229E 3CLpro inhibition assay (FRET); type: biochemical
# MERS-CoV 3CLpro = MERS-CoV 3CLpro (Middle East respiratory syndrome-related coronavirus, UniProt K9N7C7); experiment: biochemical
# SARS-CoV 3CLpro = SARS-CoV 3CLpro (Severe acute respiratory syndrome coronavirus, UniProt P0C6X7); experiment: biochemical
# HCoV-229E 3CLpro, sequence (P0C6X1 2966-3267): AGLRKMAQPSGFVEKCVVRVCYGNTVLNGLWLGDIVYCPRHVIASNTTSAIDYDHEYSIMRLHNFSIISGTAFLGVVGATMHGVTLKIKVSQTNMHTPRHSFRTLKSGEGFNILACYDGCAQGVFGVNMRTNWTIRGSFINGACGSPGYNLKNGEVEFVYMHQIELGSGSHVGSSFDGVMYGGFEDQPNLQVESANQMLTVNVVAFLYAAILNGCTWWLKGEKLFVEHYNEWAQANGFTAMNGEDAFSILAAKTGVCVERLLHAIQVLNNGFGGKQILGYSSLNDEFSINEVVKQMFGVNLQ
# MERS-CoV 3CLpro, sequence (K9N7C7 3248-3553): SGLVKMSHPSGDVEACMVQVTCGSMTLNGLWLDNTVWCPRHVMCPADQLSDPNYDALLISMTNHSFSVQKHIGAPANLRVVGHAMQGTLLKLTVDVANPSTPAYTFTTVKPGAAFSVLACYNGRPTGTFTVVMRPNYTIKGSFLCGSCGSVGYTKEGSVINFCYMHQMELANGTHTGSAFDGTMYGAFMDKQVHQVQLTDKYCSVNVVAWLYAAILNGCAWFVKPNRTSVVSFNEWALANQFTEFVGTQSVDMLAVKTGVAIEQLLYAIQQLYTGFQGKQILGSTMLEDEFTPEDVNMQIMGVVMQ
Structure (SMILES),IC50 (SARS-CoV-2 3CLpro),IC50 (HCoV-229E 3CLpro),IC50 (MERS-CoV 3CLpro),IC50 (SARS-CoV 3CLpro)
"CC(C)(C)[C@H](NC(=O)c1cc(C(F)(F)F)on1)C(=O)N1C[C@H]2[C@@H]([C@H]1C(=O)NN(C[C@@H]1CCNC1=O)C(=O)[C@H](F)Cl)C2(C)C [Example 16, N-[(1S)-1-[(1R,2S,5S)-2-[[[(2R)-2-chloro-2-fluoro-acetyl]-[[(3S)-2-oxopyrrolidin-3-yl]methyl]amino]carbamoyl]-6,6-dimethyl-3-azabicyclo[3.1.0]hexane-3-carbonyl]-2,2-dimethyl-propyl]-5-(trifluoromethyl)isoxazole-3-carboxamide]",20 nM,159 nM,430 nM,357 nM
"CCC(C)(C)[C@H](NC(=O)C1(F)CC1)C(=O)N1CC(C)(C)C[C@H]1C(=O)NN(C[C@@H]1CCNC1=O)C(=O)[C@H](F)Cl [Example 154, N-[(1S)-1-[(2S)-2-[[[(2R)-2-chloro-2-fluoro-acetyl]-[[(3S)-2-oxopyrrolidin-3-yl]methyl]amino]carbamoyl]-4,4-dimethyl-pyrrolidine-1-carbonyl]-2,2-dimethyl-butyl]-1-fluoro-cyclopropanecarboxamide]",17 nM,52 nM,305 nM,21 nM
"CC[C@@H](C)[C@H](NC(=O)C1CC1(F)F)C(=O)N1C[C@H]2[C@@H]([C@H]1C(=O)NN(C[C@@H]1CCNC1=O)C(=O)[C@@H](F)Cl)C2(C)C (mixture of isomers) [Example 124, Rac-2,2-difluoro-N-[(1S,2R)-2-methyl-1-[(1R,2S,5S)-6,6-dimethyl-2-[[[(2S)-2-chloro-2-fluoro-acetyl]-[[(3S)-2-oxopyrrolidin-3-yl]methyl]amino]carbamoyl]-3-azabicyclo[3.1.0]hexane-3-carbonyl]butyl]cyclopropanecarboxamide]",26 nM,41 nM,115 nM,45 nM
"CCC(C)(C)[C@H](NC(=O)C1CC1)C(=O)N1C[C@@H]2CCC[C@@H]2[C@H]1C(=O)NN(C[C@@H]1CCCNC1=O)C(=O)[C@H](F)Cl [Example 167a, N-[(1S)-1-[(3S,3aS,6aR)-3-[[[(2R)-2-chloro-2-fluoro-acetyl]-[[(3S)-2-oxo-3-piperidyl]methyl]amino]carbamoyl]-3,3a,4,5,6,6a-hexahydro-1H-cyclopenta[c]pyrrole-2-carbonyl]-2,2-dimethyl-butyl]cyclopropanecarboxamide]",10 nM,53 nM,169 nM,15 nM
"CC[C@H](C)[C@H](NC(=O)[C@H](F)Cl)C(=O)N1C[C@H]2[C@@H]([C@H]1C(=O)NN(C[C@H]1CCCNC1=O)C(=O)[C@H](F)Cl)C2(C)C [Example 194, (2R)-2-chloro-N-[(1S,2S)-1-[(1R,2S,5S)-2-[[[(2R)-2-chloro-2-fluoro-acetyl]-[[(3R)-2-oxo-3-piperidyl]methyl]amino]carbamoyl]-6,6-dimethyl-3-azabicyclo[3.1.0]hexane-3-carbonyl]-2-methyl-butyl]-2-fluoro-acetamide]",15 nM,29 nM,112 nM,25 nM
"CC[C@@H](C)[C@H](NC(=O)C(C)(F)F)C(=O)N1C[C@@H]2CCC[C@@H]2[C@H]1C(=O)NN(C[C@@H]1CCNC1=O)C(=O)[C@H](F)Cl [Example 76, N-[(1S,2R)-1-[(3S,3aS,6aR)-3-[[[(2R)-2-chloro-2-fluoro-acetyl]-[[(3S)-2-oxopyrrolidin-3-yl]methyl]amino]carbamoyl]-3,3a,4,5,6,6a-hexahydro-1H-cyclopenta[c]pyrrole-2-carbonyl]-2-methyl-butyl]-2,2-difluoro-propanamide]",8 nM,88 nM,194 nM,15 nM
"CC[C@H](C)[C@H](NC(=O)C1(F)CC1)C(=O)N1C[C@H](C(F)(F)F)C[C@H]1C(=O)NN(C[C@@H]1CCNC1=O)C(=O)[C@@H](F)Cl [Example 161, N-[(1S,2S)-1-[(2S,4R)-2-[[[(2S)-2-chloro-2-fluoro-acetyl]-[[(3S)-2-oxopyrrolidin-3-yl]methyl]amino]carbamoyl]-4-(trifluoromethyl)pyrrolidine-1-carbonyl]-2-methyl-butyl]-1-fluoro-cyclopropanecarboxamide]",16 nM,99 nM,336 nM,27 nM
"CC[C@H](C)[C@H](NC(=O)C(F)F)C(=O)N1C[C@@H]2CCC[C@@H]2[C@H]1C(=O)NN(C[C@@H]1CCNC1=O)C(=O)[C@H](F)Cl [Example 39, N-[(1S,2S)-1-[(3S,3aS,6aR)-3-[[[(2R)-2-chloro-2-fluoro-acetyl]-[[(3S)-2-oxopyrrolidin-3-yl]methyl]amino]carbamoyl]-3,3a,4,5,6,6a-hexahydro-1H-cyclopenta[c]pyrrole-2-carbonyl]-2-methyl-butyl]-2,2-difluoro-acetamide]",9 nM,29 nM,71 nM,11 nM
"CC(C)C[C@H](NC(=O)C(F)(F)F)C(=O)N1C[C@H]2[C@@H]([C@H]1C(=O)NN(C[C@@H]1CCNC1=O)C(=O)[C@H](F)Cl)C2(C)C [Example 3, N-[(1S)-1-[(1R,2S,5S)-2-[[[(2R)-2-chloro-2-fluoro-acetyl]-[[(3S)-2-oxopyrrolidin-3-yl]methyl]amino]carbamoyl]-6,6-dimethyl-3-azabicyclo[3.1.0]hexane-3-carbonyl]-3-methyl-butyl]-2,2,2-trifluoro-acetamide]",14 nM,38 nM,174 nM,20 nM
"CC(C)(C)[C@H](NC(=O)C1CC1)C(=O)N1C[C@H]2[C@@H]([C@H]1C(=O)NN(C[C@@H]1CCNC1=O)C(=O)[C@H](F)Cl)C2(C)C [Example 12, N-[(1S)-1-[(1R,2S,5S)-2-[[[(2R)-2-chloro-2-fluoro-acetyl]-[[(3S)-2-oxopyrrolidin-3-yl]methyl]amino]carbamoyl]-6,6-dimethyl-3-azabicyclo[3.1.0]hexane-3-carbonyl]-2,2-dimethyl-propyl]cyclopropanecarboxamide]",15 nM,26 nM,106 nM,17 nM
"CCC(CC)[C@H](NC(=O)C1CC(F)(F)C1)C(=O)N1C[C@H]2[C@@H]([C@H]1C(=O)NN(C[C@@H]1CCNC1=O)C(=O)[C@H](F)Cl)C2(C)C [Example 130, N-[(1S)-1-[(1R,2S,5S)-2-[[[(2R)-2-chloro-2-fluoro-acetyl]-[[(3S)-2-oxopyrrolidin-3-yl]methyl]amino]carbamoyl]-6,6-dimethyl-3-azabicyclo[3.1.0]hexane-3-carbonyl]-2-ethyl-butyl]-3,3-difluoro-cyclobutanecarboxamide]",12 nM,32 nM,87 nM,19 nM
"CC(C)C(=O)N[C@H](C(=O)N1C[C@H]2[C@@H]([C@H]1C(=O)NN(C[C@@H]1CCNC1=O)C(=O)[C@H](F)Cl)C2(C)C)C(C)(C)C [Example 13, N-[(1S)-1-[(1R,2S,5S)-2-[[[(2R)-2-chloro-2-fluoro-acetyl]-[[(3S)-2-oxopyrrolidin-3-yl]methyl]amino]carbamoyl]-6,6-dimethyl-3-azabicyclo[3.1.0]hexane-3-carbonyl]-2,2-dimethyl-propyl]-2-methyl-propanamide]",9 nM,24 nM,94 nM,14 nM
"CC1(C)[C@@H]2[C@@H](C(=O)NN(C[C@@H]3CCNC3=O)C(=O)[C@H](F)Cl)N(C(=O)Cc3cc(C(F)(F)F)cc(C(F)(F)F)c3)C[C@@H]21 [Example 178, (1R,2S,5S)-3-[2-[3,5-bis(trifluoromethyl)phenyl]acetyl]-N′-[(2R)-2-chloro-2-fluoro-acetyl]-6,6-dimethyl-N′—[[(3S)-2-oxopyrrolidin-3-yl]methyl]-3-azabicyclo[3.1.0]hexane-2-carbohydrazide]",148 nM,65 nM,264 nM,259 nM
"CC[C@H](C)[C@H](NC(=O)C(F)(F)F)C(=O)N1C[C@H]2[C@@H]([C@H]1C(=O)NN(C[C@H]1CCCNC1=O)C(=O)[C@H](F)Cl)C2(C)C (single isomer, unassigned) [Example 165b]",20 nM,57 nM,291 nM,36 nM
"CC[C@H](C)[C@H](NC(=O)C(F)F)C(=O)N1C[C@@H]2CCC[C@@H]2[C@H]1C(=O)NN(C[C@@H]1CCNC1=O)C(=O)[C@@H](F)Cl [Example 127, N-[(1S,2S)-1-[(3S,3aS,6aR)-3-[[[(2S)-2-chloro-2-fluoro-acetyl]-[[(3S)-2-oxopyrrolidin-3-yl]methyl]amino]carbamoyl]-3,3a,4,5,6,6a-hexahydro-1H-cyclopenta[c]pyrrole-2-carbonyl]-2-methyl-butyl]-2,2-difluoro-acetamide]",10 nM,35 nM,68 nM,12 nM
"CC[C@H](C)[C@H](NC(=O)C(F)(F)F)C(=O)N1C[C@@H]2CCC[C@@H]2[C@H]1C(=O)NN(C[C@@H]1CCNC1=O)C(=O)[C@H](F)Cl [Example 48, N-[(1S,2S)-1-[(3S,3aS,6aR)-3-[[[(2R)-2-chloro-2-fluoro-acetyl]-[[(3S)-2-oxopyrrolidin-3-yl]methyl]amino]carbamoyl]-3,3a,4,5,6,6a-hexahydro-1H-cyclopenta[c]pyrrole-2-carbonyl]-2-methyl-butyl]-2,2,2-trifluoro-acetamide]",12 nM,22 nM,56 nM,12 nM
